System: wheat (Triticum aestivum, variety "TRISO")
Test: Root growth assay, seed treatment, wheat
Type: in vivo
Conditions: Root Growth of 100 is set as the standard, 16 (±2) days post treatment
Source text: Plant roots are a highly proliferative tissue that allows an easy accessible, cheap and short term screening method for plant growth regulators. The results obtained can easily be transferred to the overall effects on a plant of plant growth regulators identified by such a system. By using this root assay one is enabled to determine the effect of a seed treatment to root growth and/or germination and/or changes in habitat of germinated plants in order to identify the possible use as a yield enhancer. Two seeds of wheat (Triticum aestivum, variety “TRISO”) or 1 seed of maize (Zea mays, variety “LORENZO”) per hole in a plastic tray which contains an architecture of 8×13 holes were placed on compost soil covered with sand. These seeds were treated with 100 μl/hole, which creates an application volume of approx. 1200 l/ha, of a compound solution at active ingredient rates equivalent to 100, 10 and 1 g a.i./ha of each compound using an robotic application system (Lizzy Spray Robotics). Six replicates in a row of each compound and concentration were done. The outer rim of the above defined plastic tray was untreated to avoid false negative effects and the middle row (No. 7) was used as untreated control. The treated seeds were allowed to dry for approx. 4 hours and subsequently covered with sand and watered. The trays were stored in climate chambers with 14 hours lighting at a temperature of 24° C. (±2) at daytime and 16° C. (±2) at night and relative humidity (rH) of 60% and daily watered. Assessments were done 16 (±2) days post treatment by counting the germinated plants and assessing the phytotoxicity symptoms and percentage. In addition, the roots were washed out and the shoots were cut directly above the seed and the wet roots were placed on dry paper towels for approximately 30 minutes and weighted afterwards. This procedure provides a similar grade of moisture to the roots so that a comparison of the weights is possible. […]

## Nc1nc(OCC23CC4CC(CC(C4)C2)C3)c2nc[nH]c2n1 [Compound 1.1, O6-Adamantylmethyl-9H-purin-2-ylamine]
1 g a.i./ha
  Root Growth: 84
10 g a.i./ha
  Root Growth: 76
100 g a.i./ha
  Root Growth: 141

From patent publication US20080039321A1, “Plant Growth Regulation” (priority 2004, published 2008)
